Entries after “also recorded” stand apart in the source; their conditions may differ.
What was measured:
[1] = tested on: GSTP1 mRNA expression in Hep3B HCC cells; assay: Northern blot analysis of GSTP1 mRNA expression by Hep3B cells treated with 5-aza-dC; conditions: for GSTP1 mRNA expression (Northern blot): Hep3B HCC cells treated in vitro, 72 hours
[2] = tested on: GSTP1 expression in Tsu-Prl PCA cells; assay: GSTP1 expression in Tsu-Prl PCA cells treated with 5-aza-dC; assay type: cell-based, human; conditions: Tsu-Prl PCA cells (unmethylated GSTP1 promoter alleles), treated as for Hep3B
Description: Assessment of GSTP1 expression.

[3] = tested on: GSTP1 promoter alleles; assay: Southern blot analysis of GSTP1 "CpG island" DNA hypermethylation in Hep3B cells treated with 5-aza-dC; assay type: cell-based, human; conditions: Hep3B HCC cells treated in vitro, 72 hours
Description: DNA isolated from Hep3B cells before and after exposure to 5-aza-dC in vitro was assessed for GSTP1 “CpG island” DNA hypermethylation using Southern blot analysis. Purified DNAs were digested first with HindIII and EcoRI and then extensively with the ^5-mC-sensitive restriction endonuclease BssHII. Digested DNAs were then electrophoresed on agarose gels, transferred to Zeta-Probe (DioRad) membranes, and then hybridized with ^32P-labeled GSTP1 cDNA DNA isolated from Hep3B HCC cells and from HCC and adjacent non-neoplastic tissues was also subjected to analysis for GSTP1 “CpG island” DNA hypermethylation using a ^5-mC-sensitive restriction endonuclease-polymerase chain reaction (PCR) strategy that permitted both detection of CpG dinucleotide methylation and simultaneous discrimination of maternal and paternal alleles in informative cases. […] To facilitate detection of the PCR amplification products, the downstream primer was end-labeled with [γ-^32P]ATP (Amersham) using T4 polynucleotide kinase (New England BioLabs). PCR was conducted by incubation at 95° C. for 1 min, 63° C. for 3 min, and 72° C. for 1.5 min, for 30 cycles followed by a final extension at 72° C. for 8 min. […]

## Nc1ncn([C@H]2C[C@H](O)[C@@H](CO)O2)c(=O)n1 [5-aza-dC, 5-aza-deoxycytidine]
[1]; Hep3B HCC cells exposed for as long as 72 hours
  time at which GSTP1 mRNA expression began to appear: ≤ 24 h
[1]
  GSTP1 mRNA expression (Northern blot): reactivation of GSTP1 mRNA expression; also recorded: appearance of detectable GSTP1 mRNA
[1]; listed as 5-aza-deoxycytidine
  GSTP1 mRNA expression (Northern blot): restored GSTP1 expression
[2]
  modulation of GSTP1 expression: no modulation of GSTP1 expression was evident
[3]
  GSTP1 "CpG island" / promoter allele methylation (Southern blot, BssHII digestion): appearance of unmethylated GSTP1 promoter alleles
[3]; listed as 5-aza-deoxycytidine
  GSTP1 "CpG island" / promoter allele methylation (Southern blot, BssHII digestion): reversed GSTP1 “CpG island” hypermethylation

Reference: patent US6709818B1, “Methods of diagnosing and treating hepatic cell proliferative disorders” (The Johns Hopkins University School of Medicine, priority 1999, dated 2004)
